The values below are quoted from earlier work in PMC8008885 (Journal of Enzyme Inhibition and Medicinal Chemistry, 2021).

For this data set, the system named is HD transgenic mice. The note with it: cited from earlier work.

For `NCCSSCCN` [cystamine], the H3K9 trimethylation entry was “reduced”; the SETDB1 gene expression result is on record as “down-regulates”; the “behaviour and neuropathological phenotype” value was “improved”.

On to `COC(=O)[C@@H]1c2cc3c(c(O)c2[C@@H](O[C@@H]2O[C@@H](C)[C@H](OC)[C@@](C)(OC)[C@H]2OC)C[C@]1(C)O)C(=O)c1c(O)cc2c(c1C3=O)O[C@@H]1O[C@@]2(C)[C@H](O)[C@@H](N(C)C)[C@@H]1O` [nogalamycin], for which the “neuroprotective effects by suppressing elevated SETDB1 and H3K9me3 level” value is recorded as “improved neuroprotective effects”.

Consider mithramycin, for which the H3K9 trimethylation entry is on record as “reduced”; the SETDB1 gene expression entry is “down-regulates”; the “behaviour and neuropathological phenotype” value is recorded as “improved”.
